PubChem BioAssay AID1996
Values after ≈ are worked out from the molar mass of the structure shown.

conditions: buffer; pH 7.4; 200.0 µM

solubility kinetic [µg/mL]	Structure (SMILES)
29.5 (≈ 86.9 µM)	CN1C(=O)C(C)(C)N(C(=O)c2cccc([N+](=O)[O-])c2)c2ccccc21
> 44.3	CCOCC(=O)OCC(=O)NC12CC3CC(CC(C3)C1)C2
2.7 (≈ 11.8 µM)	COc1ccc2c(c1)Sc1ccccc1N2
> 42.8	O=C(COc1ncnc2ccccc12)NC1CCCCC1
> 63	COc1ccccc1CNC(=O)CN(C)CC(=O)Nc1ccccc1Br
> 44.8	O=C(COc1ccc(Cl)cc1[N+](=O)[O-])N1CCCCC1
> 40.9	Cn1c(=O)n(Cc2ccccc2Cl)c2ccccc21
> 41	CSc1ncc(C(=O)Nc2ccccc2C)c(C)n1
> 49.3	Cc1ccc(NC(=O)C2CCN(C(=O)c3cccs3)CC2)cc1
> 37.8	COc1cccc(CNC(=O)N[C@@H](C)C(=O)O)c1
34.4	Cl.O=C(O)C1CCN(Cc2ccccn2)CC1
13.9 (≈ 49.2 µM)	CSc1nc2sc3c(c2c(=O)[nH]1)CC(C)(C)OC3
> 51.8	CCOC(=O)C1CCCCN1Cc1cn(C)nc1-c1ccccc1F (stereo not given)
> 41.2	N#CCCN(CCC#N)C(=S)NC1CC2C=CC1C2 (stereo not given)
37.3 (≈ 118 µM)	Cc1ccc(NC(=O)COCC(=O)Nc2ccc(F)cc2)cc1
2.8 (≈ 6.75 µM)	CCOC(=O)c1ccc(S(=O)(=O)N2CCN(C/C=C/c3ccccc3)CC2)cc1
5.6 (≈ 17.8 µM)	CC(NC(=O)c1cc(F)c(F)cc1Cl)C1CC2CCC1C2 (stereo not given)
> 39.2	Cc1ccc(CNC(=O)Nc2ccc(F)cc2)n1C
> 52.4	COc1ccc(NC(=S)NC23CN4CN(CN(C4)C2)C3)c(OC)c1
< 0.2	N#Cc1cc2cc3ccccc3nc2n2c(=O)c3ccccc3nc12

solubility kinetic [µg/mL]	Structure (SMILES)
15.6 (≈ 51.8 µM)	Cc1nc2cc(NS(=O)(=O)c3ccccc3)ccc2n1C
> 49.4	CC(C)C(NC(=O)c1ccc(Cl)cc1Cl)C(=O)N1CCC1 (stereo not given)
28.2 (≈ 95.5 µM)	Cc1ccc(C(=O)OCC(=O)N2C(C)CCCC2C)s1 (stereo not given)
31.3 (≈ 150 µM)	O=C1Nc2ccc(F)cc2C12OCCO2
29.3 (≈ 81.5 µM)	CC(OC(=O)c1ccc2c(c1)S(=O)(=O)c1ccccc1C2=O)C(N)=O (stereo not given)
> 47.4	O=C(O)c1sccc1NC(=O)c1c(Cl)cccc1Cl
10.9 (≈ 24.4 µM)	CCCCCOc1ccc(C(=O)CCC(=O)NC(C)c2ccc(S(N)(=O)=O)cc2)cc1 (stereo not given)
0.8 (≈ 2.58 µM)	CCn1c(CNC(=O)c2ccccc2F)cc2cc(C)ccc21
0.6 (≈ 1.83 µM)	COc1ccc(Nc2nc(-c3ccncc3)nc3ccccc23)cc1
1.1 (≈ 3.79 µM)	Cc1ccc2c(c1)c(C1=c3ccccc3=NC1=O)c(O)n2C
> 45	O=[N+]([O-])c1ccc(N2CCN(c3ccc(O)cc3)CC2)cn1
21.6 (≈ 72.9 µM)	FC(F)(F)c1ccccc1NC(=S)Nc1ccccc1
34.6 (≈ 148 µM)	Cc1cccc(C)c1CC(=O)N1CCOCC1
> 51.5	O=C(O)c1ccc2c(c1)C(=O)N(c1ccccc1-c1ccccc1)C2=O
> 41.5	Cc1cc(C)cc(C(=O)NCCCN2CCOCC2)c1
3 (≈ 8.79 µM)	CC(C)[C@H](NC(N)=O)C(=O)Nc1ccc(OCc2ccccc2)cc1
27.2 (≈ 90.6 µM)	COc1ccc(NC(=O)c2cccnc2)cc1OCC(C)C
> 48.5	OCCCNC(=S)Nc1ccc(Br)cc1Cl
19.1 (≈ 79.8 µM)	O=[N+]([O-])c1cccc(-c2ncc3ccccn23)c1
1 (≈ 2.79 µM)	Cc1cccc2[nH]c3c(N4CC=C(c5ccc(F)cc5)CC4)ncnc3c12

solubility kinetic [µg/mL]	Structure (SMILES)
> 40	Cc1ccc(C2C(N)C(=O)N2c2ccc(C)cc2)cc1 (stereo not given)
28.7 (≈ 97.2 µM)	COc1ccccc1CN(C)C(=O)c1cc2ccccc2o1
> 48.3	CC1=C(C)CC(C(=O)NCc2cccc(Cl)c2)C(C(=O)O)C1 (stereo not given)
> 50.6	CCCN1C(=O)CC(=O)N=C1SCC(=O)Nc1ccccc1F
41.6 (≈ 133 µM)	O=C(CCc1ccccc1F)N1CCN(c2ccccc2)CC1
6.8 (≈ 22.2 µM)	Cc1ccc(OC(=O)c2cncc(Br)c2)c(C)c1
11.1 (≈ 36.1 µM)	Fc1ccccc1-c1nc(NC2CCCC2)c2ccccc2n1
0.7 (≈ 3.08 µM)	Cc1ccccc1NC(=O)Nc1ccccn1
> 46.6	CS(=O)(=O)N(CC(=O)N1CCCCC1)Cc1ccccc1
> 44.1	Cc1cc(NC(=O)CN2C(=O)NC(CC(C)C)C2=O)no1 (stereo not given)
> 49.6	NC(=O)CS(=O)(=O)c1nc2ccccc2n1Cc1ccccn1
> 49.2	O=C1NC(=O)/C(=C/c2cc3c(cc2Br)OCO3)S1
35.4 (≈ 134 µM)	Cn1ccnc1C(O)(c1ccccc1)c1ccccc1
> 75.7	O=C(CSc1nc2ccccc2c(=O)n1CCCN1CCOCC1)Nc1ccccc1OC(F)F
< 0.3	COc1cccc(-c2cc(C(=O)NC3CCCCC3)no2)c1
1.1 (≈ 4.15 µM)	O=c1cc(NCCc2ccccc2)c2ccccc2o1
3 (≈ 9.68 µM)	CC(C)CCN1C(=O)C2(OCCCO2)c2cc(Cl)ccc21
0.9 (≈ 2.9 µM)	CC1CCCC(NC(=O)/C=C/c2c(F)cccc2Cl)C1C (stereo not given)

Structure (SMILES)	solubility kinetic [µg/mL]
CP(=O)(O)CN1CCCCC1	24.9 (≈ 141 µM)
C=CCC1(Nc2ccccc2)CC(C)N(C)CC1C.O=C(O)C(=O)O (stereo not given)	> 52.3
